Data on one compound can be found in patent publication US6780871B2, “Methods and compositions for treating addiction disorders” (Albany Medical College, priority 2001, dated 2004).

Structures are written as SMILES. Bounds are passed on as bounds.

For orientation: IC50 means the point on the concentration scale where inhibition reaches its midpoint.

One assay deals with T1, 5-HT3A receptors (Mus musculus, UniProt P23979).
T1 construct: expressed in transfected cells; host or cells: HEK293 (ATCC CRL1573), transient transfection
T1 sequence (P23979 24-489): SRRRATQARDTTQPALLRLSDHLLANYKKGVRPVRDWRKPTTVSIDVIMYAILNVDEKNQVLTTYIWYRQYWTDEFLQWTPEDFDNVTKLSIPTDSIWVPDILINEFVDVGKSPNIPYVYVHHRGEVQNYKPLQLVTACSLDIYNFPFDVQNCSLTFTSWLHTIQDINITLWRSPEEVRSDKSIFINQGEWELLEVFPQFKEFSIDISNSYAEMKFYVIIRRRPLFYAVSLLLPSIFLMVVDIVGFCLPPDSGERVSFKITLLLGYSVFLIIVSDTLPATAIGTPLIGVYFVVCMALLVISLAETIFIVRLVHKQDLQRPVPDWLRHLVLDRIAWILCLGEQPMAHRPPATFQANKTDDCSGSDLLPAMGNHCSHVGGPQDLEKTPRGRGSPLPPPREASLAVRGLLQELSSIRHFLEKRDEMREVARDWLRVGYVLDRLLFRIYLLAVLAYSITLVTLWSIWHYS
The experiment in a line: whole-cell patch-clamp of transfected HEK293 cells, 5-HT3A, 100 μM serotonin. Format: cell-based. The protocol: (§1) Human embryonic kidney 293 (HEK293) fibroblasts (ATCC CRL1573) were cultured in minimal essential medium supplemented with 10% fetal bovine serum and 2 mM glutamine (Life Technologies, Rockville, Md.). Cells were plated on poly-D-lysine-coated 35 mm nunc dishes, transfected by the LipofectaminePLUS method (Life Technologies), and examined functionally between 18-48 h post transfection. The following receptor subunit cDNAs were used: nAChR-α3 (nicotinic acetylcholine receptor-α3; accession no. L31621), nAChR-α4 (accession no. L31620), nAChR-β2 (accession no. L31622), nAChR-β4 (accession no. U42976), 5-HT3R-A (5-HT3A receptor; accession no. M74425), NR1 (N-methyl-D-aspartate receptor 1; accession no. X63255), NR2A (accession no. X91561), and NR2B (accession no. M91562). The nAchR and NR clones were rat; the 5-HT3R-A clone was mouse. Co-transfection of enhanced green fluorescent protein (“EGFP”) (10% of total cDNA) provided a marker to identify transfected cells. Transfected cells were selected for EGFP expression and examined by voltage-clamp recording in the whole-cell configuration using an Axopatch 200B patch-clamp amplifier (Axon Instruments, Foster City, Calif.). Thin-walled borosilicate glass microelectrodes (TW150F, World Precision Instruments, Sarasota, Fla.) had resistances of 3-5 MΩ when filled with an internal solution containing (in mM): 135 CsCl, 10 CsF, 10 HEPES (N-[2-hydroxyethyl]piperazine-N′-[2-ethanesulfonic acid]), 5 EGTA (ethylene glycol-bis[β-aminoethyl ether]-N,N,N′,N′-tetraacetic acid), 1 MgCl2, 0.5 CaCl2, pH 7.2. Whole-cell capacitance and series resistance were recorded and adequately compensated using the available circuitry of the amplifier. Current responses were filtered at 1 kHz with an 8-pole Bessel filter (Cygnus Technologies, Delaware Water Gap, Pa.), digitized at 3 kHz, and stored on a Macintosh PowerPC-G3 computer using an ITC-16 interface (Instrutech, Great Neck, N.Y.) under control of the data acquisition and analysis program Synapse (Synergy Research, Gaithersburg, Md.). Cells were continuously superfused with extracellular solution containing (in mM): 150 NaCl, 3 KCl, 5 HEPES, 1 MgCl2, 1.8 CaCl2, 10 glucose, and 0.1 mg/ml phenol red, pH 7.3 (MgCl2 was omitted from all solutions used for the study of NMDA receptors). […] Control, agonist, and drug solutions were applied to individual cells by rapid perfusion. Solutions were driven by a syringe pump through a flowpipe having 4 inputs that converge at a single common output of approximately 100 μm diameter. Rapid switching between inputs was achieved using a set of upstream solenoid valves (Lee Co., Westbrook, Conn.) under computer control; the solution exchange rate was ˜5 ms as measured from liquid junction currents.
Transfected HEK293 cells expressing 5-HT3A receptors were voltage-clamped to −70 mV and stimulated with 100 μM serotonin at 30 s intervals. […] This is shown in FIG. 4, where open bars depict the timing of agonist application, filled bars depict the timing of co-application of 20 μM IBO or 20 μM 18MC, and inhibition was measured relative to control at the end of the drug application (indicated by arrows).

Assay [1] deals with T2, α3β4 nACh receptors (Rattus norvegicus, UniProt P04757+P12392).
T2 construct: expressed in transfected cells; host or cells: HEK293 (ATCC CRL1573), transient transfection
T2 sequence (P04757 26-499): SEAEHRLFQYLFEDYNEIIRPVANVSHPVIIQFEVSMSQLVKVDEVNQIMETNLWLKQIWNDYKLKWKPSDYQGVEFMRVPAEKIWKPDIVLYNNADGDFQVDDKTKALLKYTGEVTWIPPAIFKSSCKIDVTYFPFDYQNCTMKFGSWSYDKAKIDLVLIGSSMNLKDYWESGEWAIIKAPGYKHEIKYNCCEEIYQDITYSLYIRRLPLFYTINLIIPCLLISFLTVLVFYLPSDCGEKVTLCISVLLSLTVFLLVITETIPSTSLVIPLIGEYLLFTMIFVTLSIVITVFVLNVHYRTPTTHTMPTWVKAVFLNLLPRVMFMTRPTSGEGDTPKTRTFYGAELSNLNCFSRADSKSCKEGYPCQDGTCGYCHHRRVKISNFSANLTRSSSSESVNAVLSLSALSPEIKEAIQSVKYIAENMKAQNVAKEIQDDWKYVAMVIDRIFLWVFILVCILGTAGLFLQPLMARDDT
T2 sequence (P12392 21-495): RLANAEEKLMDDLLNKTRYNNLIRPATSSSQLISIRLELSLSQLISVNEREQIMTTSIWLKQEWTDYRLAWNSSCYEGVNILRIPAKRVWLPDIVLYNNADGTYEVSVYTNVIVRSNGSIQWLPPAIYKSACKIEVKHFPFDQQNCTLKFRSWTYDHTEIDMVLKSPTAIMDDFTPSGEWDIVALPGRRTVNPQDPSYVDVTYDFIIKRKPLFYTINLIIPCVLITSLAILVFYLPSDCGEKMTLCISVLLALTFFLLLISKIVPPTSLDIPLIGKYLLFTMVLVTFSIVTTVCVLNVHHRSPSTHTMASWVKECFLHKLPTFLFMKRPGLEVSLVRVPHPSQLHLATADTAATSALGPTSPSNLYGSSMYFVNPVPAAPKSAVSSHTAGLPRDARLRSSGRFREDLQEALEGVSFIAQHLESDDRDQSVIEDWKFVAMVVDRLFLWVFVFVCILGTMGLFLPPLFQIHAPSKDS
The experiment in a line: whole-cell patch-clamp of transfected HEK293 cells, ganglionic α3β4 nACh receptors, 1 mM ACh. It is filed as cell-based. The protocol:
Human embryonic kidney 293 (HEK293) fibroblasts (ATCC CRL1573) were cultured in minimal essential medium supplemented with 10% fetal bovine serum and 2 mM glutamine (Life Technologies, Rockville, Md.). Cells were plated on poly-D-lysine-coated 35 mm nunc dishes, transfected by the LipofectaminePLUS method (Life Technologies), and examined functionally between 18-48 h post transfection. The following receptor subunit cDNAs were used: nAChR-α3 (nicotinic acetylcholine receptor-α3; accession no. L31621), nAChR-α4 (accession no. L31620), nAChR-β2 (accession no. L31622), nAChR-β4 (accession no. U42976), 5-HT3R-A (5-HT3A receptor; accession no. M74425), NR1 (N-methyl-D-aspartate receptor 1; accession no. X63255), NR2A (accession no. X91561), and NR2B (accession no. M91562). The nAchR and NR clones were rat; the 5-HT3R-A clone was mouse. Co-transfection of enhanced green fluorescent protein (“EGFP”) (10% of total cDNA) provided a marker to identify transfected cells. Transfected cells were selected for EGFP expression and examined by voltage-clamp recording in the whole-cell configuration using an Axopatch 200B patch-clamp amplifier (Axon Instruments, Foster City, Calif.). Thin-walled borosilicate glass microelectrodes (TW150F, World Precision Instruments, Sarasota, Fla.) had resistances of 3-5 MΩ when filled with an internal solution containing (in mM): 135 CsCl, 10 CsF, 10 HEPES (N-[2-hydroxyethyl]piperazine-N′-[2-ethanesulfonic acid]), 5 EGTA (ethylene glycol-bis[β-aminoethyl ether]-N,N,N′,N′-tetraacetic acid), 1 MgCl2, 0.5 CaCl2, pH 7.2. Whole-cell capacitance and series resistance were recorded and adequately compensated using the available circuitry of the amplifier. Current responses were filtered at 1 kHz with an 8-pole Bessel filter (Cygnus Technologies, Delaware Water Gap, Pa.), digitized at 3 kHz, and stored on a Macintosh PowerPC-G3 computer using an ITC-16 interface (Instrutech, Great Neck, N.Y.) under control of the data acquisition and analysis program Synapse (Synergy Research, Gaithersburg, Md.). […] Rapid switching between inputs was achieved using a set of upstream solenoid valves (Lee Co., Westbrook, Conn.) under computer control; the solution exchange rate was ˜5 ms as measured from liquid junction currents.
Transfected HEK293 cells expressing various receptor subunit cDNAs were examined by whole-cell patch-clamp recording with fast perfusion of agonist and drug solutions. […] In FIG. 1A, open bars depict the timing of ACh application; filled bars depict the timing of co-application of 20 μM IBO or 20 μM 18MC; and inhibition was measured relative to control at the end of the drug application (indicated by arrows). […]

Assay [2] deals with nicotine self-administration. The experiment in a line: nicotine self-administration. Format: in vivo, rat. The conditions noted are these: Example 7, FIGS. 11-12: mecamylamine 0.1 mg/kg i.p., 18-methoxycoronaridine 0.5 mg/kg i.p., dextromethorphan 0.5 mg/kg s.c., bupropion 5 mg/kg i.p.; 5-8 rats.
The subject of assay [3] is methamphetamine self-administration. Nature of the assay: intravenous methamphetamine self-administration. It is filed as in vivo, rat.
The next assay concerns the target T3, nACh receptors (Rattus norvegicus, UniProt P09483+P12390).
T3 construct: expressed in transfected cells; host or cells: HEK293 (ATCC CRL1573), transient transfection
Nature of the assay: whole-cell patch-clamp of transfected HEK293 cells, neuronal nACh receptors, 300 μM ACh. It is filed as cell-based. The conditions noted are these: 300 μM ACh, estimated from 5 and 20 μM data; read-out: IC50 suggested by the inhibition data. The protocol:
as §1
(§2) Transfected HEK293 cells expressing various receptor subunit cDNAs were examined by whole-cell patch-clamp recording with fast perfusion of agonist and drug solutions. […] Transfected HEK293 cells expressing α3β4 nACh receptors were voltage-clamped to −70 mV and stimulated with 1 mM ACh at 30 s intervals. […] In FIG. 1A, open bars depict the timing of ACh application; filled bars depict the timing of co-application of 20 μM IBO or 20 μM 18MC; and inhibition was measured relative to control at the end of the drug application (indicated by arrows). […] The data presented in FIG. 1B are mean±SEM for 3-14 cells per point, and curve fits are given for the logistic equation: I=Imax/(1+([drug]/IC50)). […] In this case, transfected HEK293 cells expressing α3β4 nACh receptors were voltage-clamped to −70 mV and stimulated with 300 μM ACh at 30 s intervals.

Assay [4] has as its target T4, α3β4 nACh receptors (Rattus norvegicus, UniProt P09483+P12390).
T4 construct: expressed in transfected cells; host or cells: HEK293 (ATCC CRL1573), transient transfection
The description is as above. It is filed as cell-based. The protocol: as §1, §2

T4 sequence (P09483 31-630): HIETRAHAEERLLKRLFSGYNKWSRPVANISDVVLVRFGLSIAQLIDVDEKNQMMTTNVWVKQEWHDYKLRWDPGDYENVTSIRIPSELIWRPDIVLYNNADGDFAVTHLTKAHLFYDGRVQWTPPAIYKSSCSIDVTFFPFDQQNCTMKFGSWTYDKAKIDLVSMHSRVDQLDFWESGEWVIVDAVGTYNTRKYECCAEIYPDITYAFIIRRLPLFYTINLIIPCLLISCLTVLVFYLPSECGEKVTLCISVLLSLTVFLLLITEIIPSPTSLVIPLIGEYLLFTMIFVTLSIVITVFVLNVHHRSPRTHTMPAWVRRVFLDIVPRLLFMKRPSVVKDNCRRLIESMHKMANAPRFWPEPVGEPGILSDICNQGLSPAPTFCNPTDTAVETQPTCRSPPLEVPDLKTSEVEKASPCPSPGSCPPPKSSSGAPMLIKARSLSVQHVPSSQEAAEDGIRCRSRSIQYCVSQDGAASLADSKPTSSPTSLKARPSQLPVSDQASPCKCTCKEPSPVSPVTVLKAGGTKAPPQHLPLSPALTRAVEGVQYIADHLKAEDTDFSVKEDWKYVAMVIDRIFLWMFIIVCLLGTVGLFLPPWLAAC
T4 sequence (P12390 25-500): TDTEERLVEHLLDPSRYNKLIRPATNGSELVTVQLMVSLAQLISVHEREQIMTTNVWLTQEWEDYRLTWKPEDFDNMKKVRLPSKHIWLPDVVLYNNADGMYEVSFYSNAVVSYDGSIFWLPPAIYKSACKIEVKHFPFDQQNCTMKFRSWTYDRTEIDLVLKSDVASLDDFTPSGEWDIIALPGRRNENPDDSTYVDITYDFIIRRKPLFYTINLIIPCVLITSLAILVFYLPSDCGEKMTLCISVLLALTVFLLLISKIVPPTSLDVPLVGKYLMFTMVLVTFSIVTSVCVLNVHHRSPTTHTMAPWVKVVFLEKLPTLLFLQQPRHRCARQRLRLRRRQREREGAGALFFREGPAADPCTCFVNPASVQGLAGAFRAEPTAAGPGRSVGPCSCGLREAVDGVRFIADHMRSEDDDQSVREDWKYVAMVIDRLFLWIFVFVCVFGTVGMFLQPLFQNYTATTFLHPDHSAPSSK
T3 sequence (P09483 31-630): as the sequence (P09483 31-630) above
T3 sequence (P12390 25-500): as the sequence (P12390 25-500) above

Regarding `COCC[C@H]1CC2CN3CCc4c([nH]c5ccccc45)[C@](C(=O)OC)(C2)[C@H]13` [18-methoxycoronaridine], the “response to drug applied alone (agonist activity)” value on 5-HT3A receptors (20 μM drug alone) is listed as “did not produce any response”; on α3β4 nACh receptors [1] (20 μM drug alone, -70 mV), “did not produce any response”; at α3β4 nACh receptors [4] (20 μM drug alone, -70 mV) it was “did not produce any response”. The “inhibition of serotonin-evoked responses” value at 5-HT3A receptors (20 μM drug with 100 μM serotonin, FIG. 4) stood at 50±3%. Besides, the IC50 at 5-HT3A receptors (approximate, from 20 μM data, read-out: IC50 at 5-HT3 receptors) was around 20 µM; at nACh receptors, above 20 µM. Moreover, the “inhibition of ACh-evoked responses on co-application” value on α3β4 nACh receptors [1] (20 μM drug with 1 mM ACh, N=15, FIG. 1A) is on record as “nearly abolished”. The “effect on nicotine self-administration (percent of baseline)” value in assay [2] is “none of the drugs administered alone, significantly decreased”. Besides, the “effect on methamphetamine self-administration (percent of baseline)” value is “none of the drugs administered alone, significantly decreased” in assay [3] (Example 5, FIG. 6: mecamylamine 1 mg/kg i.p., 18-methoxycoronaridine 2 mg/kg i.p., dextromethorphan 5 mg/kg s.c., 6-7 rats) and “none of the drugs administered alone, significantly decreased” in assay [3] (Example 6, FIG. 9: mecamylamine 1 mg/kg i.p., 18-methoxycoronaridine 5 mg/kg i.p., dextromethorphan 10 mg/kg s.c., bupropion 10 mg/kg i.p., 5-9 rats). Further, the “inhibition of ACh-evoked response” value on α3β4 nACh receptors [4] (5 μM drug with 300 μM ACh) is listed as “no apparent inhibition”; on α3β4 nACh receptors [4] (20 μM drug with 300 μM ACh, FIG. 2) it was 8 ±4%.
